According to ChEMBL document CHEMBL4196194, “De Novo Design of α-Helical Lipopeptides Targeting Viral Fusion Proteins: A Promising Strategy for Relatively Broad-Spectrum Antiviral Drug Discovery” (J Med Chem, 2018):
Activity calls are given as the source filed them. The rule behind the calls is not given here. Where a SMILES comes first, the peptide text is derived from it. [ ]: non-standard residue; d: D form. The star is where a group is joined. Palmitoyl = CCCCCCCCCCCCCCCC(=O)*; βAla = NCCC(=O)O

How the values were obtained:
Format in all cases: functional, organism-based
Influenza A virus [1] = experiment: Antiviral activity against oseltamivir-resistant Influenza A virus (H1N1) LN/1109
Influenza A virus [2] = experiment: Antiviral activity against oseltamivir-resistant Influenza A virus (H1N1) TJ/15
Influenza A virus [3] = experiment: Antiviral activity against oseltamivir-resistant Influenza A virus (H1N1) TJ/15 up to 100 uM

Row | SMILES | EC50 (Influenza A virus [1]) | EC50 (Influenza A virus [2]) | inhibition (Influenza A virus [3])
1 | CCCCCCCCCCCCCCCC(=O)NCCCC[C@H](NC(=O)CCNC(=O)[C@H](CCCCN)NC(=O)[C@H](CCCCN)NC(=O)[C@H](CCC(N)=O)NC(=O)[C@@H](NC(=O)[C@H](CCC(=O)O)NC(=O)[C@H](CCC(=O)O)NC(=O)[C@@H](NC(=O)[C@H](CCCCN)NC(=O)[C@H](CCCCN)NC(=O)[C@H](CCC(N)=O)NC(=O)[C@@H](NC(=O)[C@H](CCC(=O)O)NC(=O)[C@H](CCC(=O)O)NC(=O)[C@@H](NC(=O)[C@H](CCCCN)NC(=O)[C@H](CCCCN)NC(=O)[C@H](CCC(N)=O)NC(=O)[C@@H](NC(=O)[C@H](CCC(=O)O)NC(=O)[C@H](CCC(=O)O)NC(=O)[C@@H](NC(=O)[C@H](CCCCN)NC(=O)[C@H](CCCCN)NC(=O)[C@H](CCC(N)=O)NC(=O)[C@@H](NC(=O)[C@H](CCC(=O)O)NC(=O)[C@H](CCC(=O)O)NC(=O)[C@@H](NC(=O)[C@H](CCCCN)NC(=O)[C@H](CCCCN)NC(=O)[C@H](CCC(N)=O)NC(=O)[C@@H](NC(=O)[C@H](CCC(=O)O)NC(=O)[C@H](CCC(=O)O)NC(=O)[C@@H](NC(C)=O)[C@@H](C)CC)[C@@H](C)CC)[C@@H](C)CC)[C@@H](C)CC)[C@@H](C)CC)[C@@H](C)CC)[C@@H](C)CC)[C@@H](C)CC)[C@@H](C)CC)[C@@H](C)CC)C(N)=O (Ac-IEEIQKKIEEIQKKIEEIQKKIEEIQKKIEEIQKK[βAla]K(Palmitoyl)-NH2) | 4.36 µM | 3.03 µM | –
2 | CCOC(=O)C1=C[C@@H](OC(CC)CC)[C@H](NC(C)=O)[C@@H](N)C1 [OSELTAMIVIR] | 21.7 µM | – | inactive
